Where two headings read alike, the source gives them in different places.
Tests used:
CLK1 [1] = molecular target: T1, CLK1 (Homo sapiens, UniProt P49759); test: Kinase-GLO luminescent kinase assay; assay type: biochemical; set-up: made in house; host or cells: E. coli; details: 1 μM compound; means of at least 3 measurements
Experimental: (§1) Bacterial expression plasmids for GST-DYRK1A-ΔC and GST-DYRK2 have been described earlier. […] Expression in logarithmically growing E. coli culture was performed for 3 h at 37°C (GST-DYRK1A-ΔC and GST-DYRK2), 3 h at 26°C (GST-HIPK2cat), over night at 28°C (GST-CLK1cat) or over night at room temperature (GST-DYRK1Bcat).
(§2) Compounds were screened for inhibitory effects against GST-DYRK1A-ΔC, GST-DYRK1Bcat, GST-DYRK2, GST-CLK1cat or GST-HIPK2cat using the Kinase-GLO Luminescent Kinase Assay from Promega. Assays were performed in a total volume of 10 μL in kinase-buffer (25 mM Hepes pH 7.4, 0.5 mM DTT, 5 mM MgCl2, 5 μM ATP) with appropriate peptide substrates (20 μM DYRKtide for the DYRKs and 100 μM DYRKtide for HIPK2, […]; or 100 μM RS domain-derived peptide for CLK1, […]). Assays were started with this amount of a kinase preparation that consumed approximately 90% of the ATP in the assay (linear range of the kinase titration curve). The reactions were run at room temperature for 30 min before 10 μL Kinase-GLO reagent was added. After incubation at room temperature for additional 10 min, luminescence was recorded for 1 s.
Target sequence in this assay (P49759 141-484): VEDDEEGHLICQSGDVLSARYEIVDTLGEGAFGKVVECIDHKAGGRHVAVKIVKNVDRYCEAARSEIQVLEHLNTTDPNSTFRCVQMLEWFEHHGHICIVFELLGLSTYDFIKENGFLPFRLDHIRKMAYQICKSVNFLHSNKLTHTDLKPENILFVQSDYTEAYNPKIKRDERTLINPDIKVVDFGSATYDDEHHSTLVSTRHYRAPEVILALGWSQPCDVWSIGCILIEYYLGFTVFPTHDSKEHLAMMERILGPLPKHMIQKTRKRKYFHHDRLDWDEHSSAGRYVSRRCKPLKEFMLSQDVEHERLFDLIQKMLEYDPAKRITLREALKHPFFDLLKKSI

DYRK1B = DYRK1B (Homo sapiens, UniProt Q9Y463); test: Kinase-GLO luminescent kinase assay; assay type: biochemical; set-up: made in house; host or cells: E. coli; details: 1 μM compound; means of at least 3 measurements
Experimental: as §1, §2

HIPK2 [2] = molecular target: T2, HIPK2 (Homo sapiens, UniProt Q9H2X6); test: Kinase-GLO luminescent kinase assay; assay type: biochemical; set-up: made in house; host or cells: E. coli; details: 10 μM compound; means of at least 3 measurements
Experimental: as §1, §2
Target sequence in this assay (Q9H2X6 180-533): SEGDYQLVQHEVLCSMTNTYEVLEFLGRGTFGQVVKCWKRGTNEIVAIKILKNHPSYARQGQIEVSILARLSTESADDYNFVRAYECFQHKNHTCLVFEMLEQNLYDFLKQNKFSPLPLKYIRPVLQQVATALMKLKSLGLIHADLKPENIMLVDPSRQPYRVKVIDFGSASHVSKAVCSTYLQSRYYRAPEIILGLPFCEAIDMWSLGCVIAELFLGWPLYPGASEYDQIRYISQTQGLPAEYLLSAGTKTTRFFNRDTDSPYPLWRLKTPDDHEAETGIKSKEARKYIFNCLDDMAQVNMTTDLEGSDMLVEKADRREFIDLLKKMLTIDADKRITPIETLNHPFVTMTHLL

DYRK1A [3] = molecular target: T3, DYRK1A (Homo sapiens, UniProt Q13627); test: Kinase-GLO luminescent kinase assay; assay type: biochemical; details: 1 μM compound; means of at least 3 measurements
T3 construct: purchased ProQinase (Freiburg, Germany)
Experimental: as §1, §2

DYRK2 = molecular target: T4, DYRK2 (Homo sapiens, UniProt Q92630); test: Kinase-GLO luminescent kinase assay; assay type: biochemical; details: 1 μM compound; means of at least 3 measurements
T4 construct: purchased ProQinase (Freiburg, Germany)
T4 sequence (Q92630 1-601): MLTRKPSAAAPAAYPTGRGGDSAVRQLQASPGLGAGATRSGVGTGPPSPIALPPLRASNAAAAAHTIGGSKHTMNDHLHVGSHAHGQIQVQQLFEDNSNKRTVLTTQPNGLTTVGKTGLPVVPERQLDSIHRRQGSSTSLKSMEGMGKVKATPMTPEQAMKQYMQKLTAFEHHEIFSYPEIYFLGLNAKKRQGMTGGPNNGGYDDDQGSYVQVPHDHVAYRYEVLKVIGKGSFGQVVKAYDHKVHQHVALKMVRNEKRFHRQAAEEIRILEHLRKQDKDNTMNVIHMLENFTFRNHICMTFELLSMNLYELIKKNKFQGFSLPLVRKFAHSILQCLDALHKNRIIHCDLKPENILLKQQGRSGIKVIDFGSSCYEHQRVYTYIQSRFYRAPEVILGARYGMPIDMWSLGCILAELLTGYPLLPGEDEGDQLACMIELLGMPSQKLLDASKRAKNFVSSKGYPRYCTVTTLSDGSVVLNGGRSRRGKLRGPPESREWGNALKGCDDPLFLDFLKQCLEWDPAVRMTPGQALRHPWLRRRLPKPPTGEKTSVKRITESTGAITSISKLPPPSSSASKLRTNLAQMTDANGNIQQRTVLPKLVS
Experimental: as §1, §2

Cell viability XTT assay [4] = assay type: cell-based; details: human, read-out: Viability of treated cells relative to untreated control
Cell viability XTT assay [5] = assay type: cell-based; details: human, read-out: Viability of treated cells relative to untreated control; remark: listed apart in the source
Cell viability XTT assay [6] = assay type: cell-based; details: rat, read-out: Viability of treated cells relative to untreated control; for viability at 3 days, 1 µM: PC12, 1 μM
SH-SY5Y cells = test: Cell viability XTT assay; assay type: cell-based; details: 3 days
HeLa cells = test: Cell viability XTT assay; assay type: cell-based; details: 3 days
PC12 cells = test: Cell viability XTT assay; assay type: cell-based; details: 3 days
IRAK1 = IRAK1 (Homo sapiens, UniProt P51617); set-up: purchased ProQinase (Freiburg, Germany); details: 10 μM; cited from earlier work
PIM3 = PIM3 (Homo sapiens, UniProt Q86V86); set-up: purchased ProQinase (Freiburg, Germany); details: 10 μM; cited from earlier work
CLK1 [7] = molecular target: T1, CLK1; set-up: purchased ProQinase (Freiburg, Germany); details: 10 μM; cited from earlier work
HIPK4 = molecular target: T5, HIPK4 (Homo sapiens, UniProt Q8NE63); set-up: purchased ProQinase (Freiburg, Germany); details: 10 μM; cited from earlier work
T5 sequence (Q8NE63 1-616): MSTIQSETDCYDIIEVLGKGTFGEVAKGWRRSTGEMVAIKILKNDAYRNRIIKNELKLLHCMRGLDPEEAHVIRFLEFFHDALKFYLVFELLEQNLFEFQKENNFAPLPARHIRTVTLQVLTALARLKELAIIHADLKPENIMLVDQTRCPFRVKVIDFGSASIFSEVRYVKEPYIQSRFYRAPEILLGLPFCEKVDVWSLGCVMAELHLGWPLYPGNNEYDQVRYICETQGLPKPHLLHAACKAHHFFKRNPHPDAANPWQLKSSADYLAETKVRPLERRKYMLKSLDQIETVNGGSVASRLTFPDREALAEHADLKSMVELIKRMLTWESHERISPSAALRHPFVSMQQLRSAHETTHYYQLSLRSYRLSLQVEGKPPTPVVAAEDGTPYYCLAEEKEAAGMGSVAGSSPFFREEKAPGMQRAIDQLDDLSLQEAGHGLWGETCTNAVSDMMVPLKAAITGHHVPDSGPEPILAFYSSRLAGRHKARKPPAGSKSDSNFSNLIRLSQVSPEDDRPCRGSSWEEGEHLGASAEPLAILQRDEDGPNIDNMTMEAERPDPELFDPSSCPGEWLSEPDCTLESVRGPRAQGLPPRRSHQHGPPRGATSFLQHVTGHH

DYRK1A [8] = details: 10 μM; cited from earlier work
CLK3 = molecular target: T6, CLK3 (Homo sapiens, UniProt P49761); details: 10 μM; cited from earlier work
T6 construct: purchased ProQinase (Freiburg, Germany)

PIM2 = PIM2 (Homo sapiens, UniProt Q9P1W9); set-up: purchased ProQinase (Freiburg, Germany); details: 10 μM; cited from earlier work
HIPK1 = HIPK1 (Homo sapiens, UniProt Q86Z02); set-up: purchased ProQinase (Freiburg, Germany); details: 10 μM; cited from earlier work
HIPK2 [9] = molecular target: T2, HIPK2; set-up: purchased ProQinase (Freiburg, Germany); details: 10 μM; cited from earlier work
Target sequence in this assay (Q9H2X6 whole entry): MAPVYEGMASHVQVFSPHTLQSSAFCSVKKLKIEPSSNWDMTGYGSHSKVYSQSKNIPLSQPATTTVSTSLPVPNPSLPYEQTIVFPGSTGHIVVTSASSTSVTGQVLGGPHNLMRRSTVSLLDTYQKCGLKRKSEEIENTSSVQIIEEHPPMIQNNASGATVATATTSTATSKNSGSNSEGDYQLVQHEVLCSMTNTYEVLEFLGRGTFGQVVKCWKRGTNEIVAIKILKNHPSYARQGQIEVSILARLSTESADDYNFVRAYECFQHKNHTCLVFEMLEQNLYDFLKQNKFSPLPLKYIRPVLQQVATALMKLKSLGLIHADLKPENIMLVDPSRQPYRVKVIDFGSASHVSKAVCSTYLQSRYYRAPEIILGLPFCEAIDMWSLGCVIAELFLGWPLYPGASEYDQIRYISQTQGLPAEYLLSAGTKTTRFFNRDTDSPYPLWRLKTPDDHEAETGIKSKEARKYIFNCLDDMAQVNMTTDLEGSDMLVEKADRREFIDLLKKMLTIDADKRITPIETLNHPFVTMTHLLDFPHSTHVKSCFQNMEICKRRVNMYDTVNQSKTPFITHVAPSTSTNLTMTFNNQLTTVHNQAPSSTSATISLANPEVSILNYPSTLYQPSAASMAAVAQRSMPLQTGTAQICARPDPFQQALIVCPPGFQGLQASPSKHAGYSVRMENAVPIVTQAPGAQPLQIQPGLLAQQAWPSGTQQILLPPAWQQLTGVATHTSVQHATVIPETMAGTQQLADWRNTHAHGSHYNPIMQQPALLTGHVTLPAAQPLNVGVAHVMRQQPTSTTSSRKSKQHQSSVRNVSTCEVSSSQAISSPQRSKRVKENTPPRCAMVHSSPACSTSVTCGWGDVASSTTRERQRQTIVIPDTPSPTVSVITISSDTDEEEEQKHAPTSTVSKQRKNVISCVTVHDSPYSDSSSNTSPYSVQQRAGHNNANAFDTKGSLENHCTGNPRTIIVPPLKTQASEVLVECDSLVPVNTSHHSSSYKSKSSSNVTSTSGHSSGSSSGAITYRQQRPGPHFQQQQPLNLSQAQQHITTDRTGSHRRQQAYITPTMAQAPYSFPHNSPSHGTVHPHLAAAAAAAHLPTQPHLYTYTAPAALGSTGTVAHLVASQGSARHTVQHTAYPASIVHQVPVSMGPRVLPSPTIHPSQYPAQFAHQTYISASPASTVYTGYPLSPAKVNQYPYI

HIPK3 = HIPK3 (Homo sapiens, UniProt Q9H422); set-up: purchased ProQinase (Freiburg, Germany); details: 10 μM; cited from earlier work
PIM1 = PIM1 (Homo sapiens, UniProt P11309); set-up: purchased ProQinase (Freiburg, Germany); details: 10 μM; cited from earlier work
PIM1, sequence (P11309 whole entry): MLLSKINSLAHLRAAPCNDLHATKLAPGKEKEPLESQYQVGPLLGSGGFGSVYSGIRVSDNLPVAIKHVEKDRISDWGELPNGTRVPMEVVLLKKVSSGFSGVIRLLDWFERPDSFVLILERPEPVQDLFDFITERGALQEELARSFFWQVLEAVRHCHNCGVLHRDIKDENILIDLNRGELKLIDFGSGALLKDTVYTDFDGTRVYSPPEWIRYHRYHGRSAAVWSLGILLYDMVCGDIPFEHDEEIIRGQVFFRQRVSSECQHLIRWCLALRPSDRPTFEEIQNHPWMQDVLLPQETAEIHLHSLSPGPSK

PIM2, sequence (Q9P1W9 whole entry): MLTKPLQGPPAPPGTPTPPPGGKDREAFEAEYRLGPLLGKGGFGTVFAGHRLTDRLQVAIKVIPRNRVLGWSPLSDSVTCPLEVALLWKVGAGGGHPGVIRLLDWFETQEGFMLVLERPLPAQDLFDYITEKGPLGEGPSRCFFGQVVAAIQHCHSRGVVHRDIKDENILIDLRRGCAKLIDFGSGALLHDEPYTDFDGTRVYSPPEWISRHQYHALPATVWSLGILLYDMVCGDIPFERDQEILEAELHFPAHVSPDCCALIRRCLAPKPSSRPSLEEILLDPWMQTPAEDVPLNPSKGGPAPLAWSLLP
HIPK1, sequence (Q86Z02 whole entry): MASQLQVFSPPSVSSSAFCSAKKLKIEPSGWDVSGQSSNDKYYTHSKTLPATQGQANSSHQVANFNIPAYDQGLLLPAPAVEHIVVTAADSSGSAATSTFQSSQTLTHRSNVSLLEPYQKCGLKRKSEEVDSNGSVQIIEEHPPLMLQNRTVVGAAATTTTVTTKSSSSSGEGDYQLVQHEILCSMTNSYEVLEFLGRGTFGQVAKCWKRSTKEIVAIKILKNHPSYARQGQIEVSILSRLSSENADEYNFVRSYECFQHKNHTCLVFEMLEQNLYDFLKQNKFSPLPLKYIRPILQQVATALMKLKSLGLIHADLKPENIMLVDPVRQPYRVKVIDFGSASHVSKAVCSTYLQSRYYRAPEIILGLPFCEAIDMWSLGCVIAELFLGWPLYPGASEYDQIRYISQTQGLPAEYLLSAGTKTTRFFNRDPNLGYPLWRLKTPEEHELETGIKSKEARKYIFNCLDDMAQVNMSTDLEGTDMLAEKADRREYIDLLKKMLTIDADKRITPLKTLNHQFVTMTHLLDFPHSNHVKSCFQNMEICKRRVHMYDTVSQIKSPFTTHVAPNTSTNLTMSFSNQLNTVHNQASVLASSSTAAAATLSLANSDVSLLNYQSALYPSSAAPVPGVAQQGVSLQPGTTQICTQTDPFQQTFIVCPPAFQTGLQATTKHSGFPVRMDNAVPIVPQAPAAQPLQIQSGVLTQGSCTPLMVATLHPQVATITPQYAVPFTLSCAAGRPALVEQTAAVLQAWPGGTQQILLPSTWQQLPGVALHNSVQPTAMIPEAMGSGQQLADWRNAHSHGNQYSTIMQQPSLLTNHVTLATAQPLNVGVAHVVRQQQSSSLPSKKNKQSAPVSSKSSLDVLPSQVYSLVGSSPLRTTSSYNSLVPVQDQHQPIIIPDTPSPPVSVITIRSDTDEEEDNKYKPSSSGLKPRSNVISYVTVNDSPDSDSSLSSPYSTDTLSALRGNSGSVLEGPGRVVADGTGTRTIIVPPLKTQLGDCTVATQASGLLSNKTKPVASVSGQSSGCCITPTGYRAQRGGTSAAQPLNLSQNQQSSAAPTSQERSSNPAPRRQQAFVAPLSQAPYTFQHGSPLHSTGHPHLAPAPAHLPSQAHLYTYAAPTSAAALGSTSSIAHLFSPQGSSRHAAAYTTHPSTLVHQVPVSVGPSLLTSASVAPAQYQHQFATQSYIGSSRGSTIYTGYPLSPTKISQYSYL
IRAK1, sequence (P51617 whole entry): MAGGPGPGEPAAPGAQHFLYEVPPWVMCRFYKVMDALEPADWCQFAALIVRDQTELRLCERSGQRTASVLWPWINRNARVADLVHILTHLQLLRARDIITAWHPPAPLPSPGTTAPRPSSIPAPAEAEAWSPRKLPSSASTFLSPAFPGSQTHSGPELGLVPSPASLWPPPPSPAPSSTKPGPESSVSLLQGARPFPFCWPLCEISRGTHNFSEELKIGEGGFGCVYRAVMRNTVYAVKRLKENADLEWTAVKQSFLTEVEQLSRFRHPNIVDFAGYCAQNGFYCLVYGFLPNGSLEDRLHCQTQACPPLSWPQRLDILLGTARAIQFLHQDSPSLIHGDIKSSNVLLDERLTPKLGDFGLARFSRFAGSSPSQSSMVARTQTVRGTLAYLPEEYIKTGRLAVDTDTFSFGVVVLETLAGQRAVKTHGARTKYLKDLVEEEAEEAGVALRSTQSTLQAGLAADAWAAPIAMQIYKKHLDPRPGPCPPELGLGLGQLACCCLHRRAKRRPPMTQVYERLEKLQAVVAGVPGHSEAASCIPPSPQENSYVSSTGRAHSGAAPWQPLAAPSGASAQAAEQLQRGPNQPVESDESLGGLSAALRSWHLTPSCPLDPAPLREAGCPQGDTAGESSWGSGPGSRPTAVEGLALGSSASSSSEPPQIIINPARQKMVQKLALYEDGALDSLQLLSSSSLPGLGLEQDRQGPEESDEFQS

COc1ccc2c(c1)[nH]c1c(/C=C/c3ccccc3)nccc12 [AnnH18_5]
Residual activity (% of control) CLK1 (CLK1 [1]): 58 % of control | Residual activity (% of control) DYRK1B (DYRK1B): 50 % of control | Residual activity (% of control) HIPK2 (HIPK2 [2]): 95 % of control | Residual activity (% of control) DYRK1A (DYRK1A [3]): 27 % of control | Residual activity (% of control) DYRK2 (DYRK2): 51 % of control

COc1ccc2c(c1)[nH]c1c(Cl)nccc12 [AnnH24]
Residual activity (% of control) CLK1 (CLK1 [1]): 17 % of control | Residual activity (% of control) DYRK1B (DYRK1B): 44 % of control | Residual activity (% of control) HIPK2 (HIPK2 [2]): 91 % of control | Residual activity (% of control) DYRK2 (DYRK2): 63 % of control | viability at 3 days, 1 µM (Cell viability XTT assay [4]; SH-SY5Y cells): 75% | viability at 3 days, 3 µM (Cell viability XTT assay [4]; SH-SY5Y cells, 3 μM): 66% | viability at 3 days, 10 µM (Cell viability XTT assay [4]; SH-SY5Y cells, 10 μM): 45% | viability at 3 days, 1 µM (Cell viability XTT assay [5]; HeLa cells): 97% | viability at 3 days, 3 µM (Cell viability XTT assay [5]; HeLa cells, 3 μM): 96% | viability at 3 days, 10 µM (Cell viability XTT assay [5]; HeLa cells, 10 μM): 72% | viability at 3 days, 1 µM (Cell viability XTT assay [6]; PC12 cells): 95% | viability at 3 days, 3 µM (Cell viability XTT assay [6]; PC12 cells, PC12, 3 μM): 90% | viability at 3 days, 10 µM (Cell viability XTT assay [6]; PC12 cells, PC12, 10 μM): 81%

COc1ccc2c3ccnc(C)c3n(CCC#N)c2c1 [AnnH42]
Residual activity (% of control) CLK1 (CLK1 [1]): 44 % of control | Residual activity (% of control) DYRK1B (DYRK1B): 43 % of control | Residual activity (% of control) HIPK2 (HIPK2 [2]): 96 % of control | Residual activity (% of control) DYRK1A (DYRK1A [3]): 22 % of control | Residual activity (% of control) DYRK2 (DYRK2): 81 % of control

C#CCn1c2c(C)nccc2c2ccc(Cl)c(Cl)c21 [AnnH67]
Residual activity (% of control) CLK1 (CLK1 [1]): 34 % of control | Residual activity (% of control) DYRK1B (DYRK1B): 59 % of control | Residual activity (% of control) HIPK2 (HIPK2 [2]): 74 % of control | Residual activity (% of control) DYRK1A (DYRK1A [3]): 17 % of control | Residual activity (% of control) DYRK2 (DYRK2): 100 % of control

Cc1nccc2c3ccc(Cl)c(Cl)c3n(CC#N)c12 [AnnH69]
Residual activity (% of control) CLK1 (CLK1 [1]): 33 % of control | Residual activity (% of control) DYRK1B (DYRK1B): 60 % of control | Residual activity (% of control) HIPK2 (HIPK2 [2]): 33 % of control | Residual activity (% of control) DYRK1A (DYRK1A [3]): 17 % of control | Residual activity (% of control) DYRK2 (DYRK2): 61 % of control

C#CCn1c2cc(OC)ccc2c2ccnc(Cl)c21 [AnnH74]
Residual activity (% of control) CLK1 (CLK1 [1]): 46 % of control | Residual activity (% of control) DYRK1B (DYRK1B): 35 % of control | Residual activity (% of control) HIPK2 (HIPK2 [2]): 97 % of control | Residual activity (% of control) DYRK1A (DYRK1A [3]): 12 % of control | Residual activity (% of control) DYRK2 (DYRK2): 85 % of control

Nc1ncnc2c1c(I)cn2[C@@H]1O[C@H](CO)[C@@H](O)[C@H]1O [IoT, 5-iodotubercidin, reference compound]
Residual activity (% of control) CLK1 (CLK1 [1]): 4 % of control | Residual activity (% of control) DYRK1B (DYRK1B): 4 % of control | Residual activity (% of control) HIPK2 (HIPK2 [2]): 20 % of control | Residual activity (% of control) DYRK1A (DYRK1A [3]): 13 % of control | Residual activity (% of control) DYRK2 (DYRK2): 10 % of control | Viability of treated cells relative to untreated control (SH-SY5Y cells; 1 μM): 13% | Viability of treated cells relative to untreated control (SH-SY5Y cells; 3 μM): 10% | Viability of treated cells relative to untreated control (SH-SY5Y cells; 10 μM): 15% | Viability of treated cells relative to untreated control (HeLa cells; 1 μM): 67% | Viability of treated cells relative to untreated control (HeLa cells; 3 μM): 16% | Viability of treated cells relative to untreated control (HeLa cells; 10 μM): 18% | Viability of treated cells relative to untreated control (PC12 cells; PC12, 1 μM): 62% | Viability of treated cells relative to untreated control (PC12 cells; PC12, 3 μM): 17% | Viability of treated cells relative to untreated control (PC12 cells; PC12, 10 μM): 5%

O=C1NC(Nc2ccccc2)=N/C1=C\c1ccc2c(c1)OCO2 [L41]
Residual activity (% of control) (IRAK1): 3 % of control | Residual activity (% of control) (PIM3): 27 % of control | Residual activity (% of control) (CLK1 [7]): 0 % of control | Residual activity (% of control) (HIPK4): 44 % of control | Residual activity (% of control) (DYRK1A [8]): 0 % of control | Residual activity (% of control) (CLK3): 2 % of control | Residual activity (% of control) (PIM2): 41 % of control | Residual activity (% of control) (HIPK1): 1 % of control | Residual activity (% of control) (HIPK2 [9]): 11 % of control

CN1C(=O)/C(=C/c2ccc3c(c2)OCO3)N=C1N [Leucett-amine B, Leucettamine B]
Residual activity (% of control) (IRAK1): 100 % of control | Residual activity (% of control) (PIM3): 71 % of control | Residual activity (% of control) (HIPK3): 45 % of control | Residual activity (% of control) (PIM1): 73 % of control | Residual activity (% of control) (HIPK4): 91 % of control | Residual activity (% of control) (DYRK1A [8]): 2 % of control | Residual activity (% of control) (PIM2): 82 % of control | Residual activity (% of control) (HIPK1): 34 % of control | Residual activity (% of control) (HIPK2 [9]): 60 % of control

CN[C@@H]1C[C@H]2O[C@@](C)([C@@H]1OC)n1c3ccccc3c3c4c(c5c6ccccc6n2c5c31)C(=O)NC4 [Staurosporine, reference compound]
viability at 3 days, 1 µM (Cell viability XTT assay [4]; SH-SY5Y): 6% | viability at 3 days, 1 µM (Cell viability XTT assay [5]; HeLa): 8% | viability at 3 days, 1 µM (Cell viability XTT assay [6]): 18%
